Data on two compounds can be found in patent US20050215529A1, “Method of treating oxidative stress-associated conditions with isopentenyl diphosphate” (THE REGENTS OF THE UNIVERSITY OF MICHIGAN, priority 2004, published 2005).

Values joined by “and” are separate entries in the source; they are usually repeats but may differ in a detail not shown here. Equal entries are not always repeated. Where two headings read alike, the source gives them in different places.

The test system of assay [1] is human fibroblastoid M1 cells. The experiment in a line: Measurement of cAMP levels (EIA kit). In kind it is cell-based. To be noted: 10 μM agent, in presence of RO20-1724; FIG. 18. The procedure: Cyclic AMP levels were measured using a kit that is commercially-available from Amersham Biosciences of Piscataway, N.J., under the name “EIA Kit” (Cat. No. RPN225). Specifically, human fibroblastoid M1 cells were cultured overnight in 6-well tissue culture plates, 2×10^5 cells per well. Before stimulation, the cells were washed once with serum-free DMEM medium and incubated in 37° C. with 0.2 millimolar (mM) RO20-1724, a phosphodiesterase inhibitor, for fifteen minutes. Following this incubation period, 10 μM of either 2-chloroadenosine or isopentenyl diphosphate were added to each cell culture, and the cells cultures were thereafter maintained at 37° C. for the indicated time in the presence of phosphodiesterase inhibitor (RO20-1724). Determination of cAMP levels was performed with the EIA Kit in accordance with its manufacturer's instructions.
In another test, human fibroblastoid M1 cells also were stimulated with 10 μM 2-chloroadenosine or isopentenyl diphosphate, and cAMP levels were quantified.

The subject of assay [2] is murine L-cell fibroblasts, human cells of lymphoid, fibroblastoid, myeloid, or neuronal lineages. The experiment in a line: Antioxidative signaling in other cell lineages and species (data not shown). Type of assay: cell-based.
Assay [3] relates to human fibroblastoid M1 cells. Nature of the assay: Comet assay, protection against H2O2-induced DNA damage. Type of assay: cell-based. The procedure: (§1) A single-cell gel electrophoresis (SCGE) assay, known as the “Comer” assay was performed to detect/quantify DNA damage by identifying DNA-strand breakage in individual cells, for example. The assay was performed using a kit commercially-available from Trevigen, Inc., of Gaithersburg, Md., as “CometAssay™.” See P. J. McCarthy et al. (1997) Mutagenesis 12:209-214; A. R. Collins et al. (2001) Biochem. Soc. Trans. 29:337-341. Sub-confluent cells were washed with phosphate buffered saline (PBS) and detached from the tissue culture flasks using a 0.05% trypsin solution. After centrifugation, the cells were washed and re-suspended in serum-free DMEM medium. The cells were divided into Eppendorf tubes (1.5 ml), and centrifuged at 2500 rotations per minutes (rpm) for ten minutes. Signal-modulating agents were added and samples were kept in a 37° C. incubator for thirty minutes. In some experiments, the cells were pre-incubated with various inhibitors for the indicated times at 37° C. At the end of the incubation period with signal-modulating chemicals, the cells were washed with PBS and treated with 100 μM H2O2 in 0.5 ml PBS on ice for twenty minutes. Following the hydrogen peroxide treatment, the cells were immediately microfuged for fifteen seconds. The cells were twice washed with cold PBS, and re-suspended at 1.0×10^5 cells/ml in ice-cold PBS. Five microliter cell suspension were each mixed with 50 μl molten LMAgarose and, thereafter, the mixtures were placed onto slides (CometSlide™).
(§2) The slides were placed at 4° C. in the dark for ten minutes and subsequently immersed in pre-chilled Lysis Solution at 4° C. for an additional thirty minutes. Following this incubation, excess buffer was tapped off from the slides. Subsequently, the slides were placed in a 50 ml Coplin jar containing alkali buffer for thirty minutes at room temperature in the dark and then immersed in 50 ml of TBE buffer for five minutes. The slides were then placed flat onto a gel tray submerged in TBE buffer in a horizontal electrophoresis apparatus, and aligned equidistant from the electrodes. Electrophoresis was performed at one volt per centimeter (cm) for ten minutes. Following this electrophoresis, the samples were fixed in 100% methanol for five minutes and 100% ethanol for five minutes. After drying, 50 μl of diluted SYBR Green Concentrate was added onto each circle of agarose. Comet tail fluorescence intensity was quantified with a Diagnostic Instruments digitized camera, mounted on a Nikon Eclipse E400 microscope, using Scion Image software. Quantification of comet fluorescence was performed as described in P. J. McCarthy et al. (1997) Mutagenesis 12:209-214. Each data point was derived from 30 to 100 individual cells. The data are shown either in arbitrary fluorescent units, or as % DNA damage protection (i.e., the percent decrement in tail fluorescence intensity with test reagent, relative to the intensity recorded in cells treated with hydrogen peroxide only)±S.E.M.
A dose response analysis of DNA damage protection also was performed to determine the efficacy of various doses of isopentenyl diphosphate versus 2-chloroadenosine. The analysis was carried out by pre-incubating human fibroblastoid M1 cells for thirty minutes with different concentrations of isopentenyl diphosphate or 2-chloroadenosine prior to incubating the cells with 100 μM H2O2 to induce oxidative stress. Following induction of oxidative stress, DNA damage was quantified using the Comet assay, as described above.

The test system of assay [4] is A1AR-transfected HEK293 cells. The experiment in a line: Comet assay in A1AR-transfected HEK293 cells. Type of assay: cell-based, human. The procedure:
A single-cell gel electrophoresis (SCGE) assay, known as the “Comer” assay was performed to detect/quantify DNA damage by identifying DNA-strand breakage in individual cells, for example. The assay was performed using a kit commercially-available from Trevigen, Inc., of Gaithersburg, Md., as “CometAssay™.” See P. J. McCarthy et al. (1997) Mutagenesis 12:209-214; A. R. Collins et al. (2001) Biochem. Soc. Trans. 29:337-341. Sub-confluent cells were washed with phosphate buffered saline (PBS) and detached from the tissue culture flasks using a 0.05% trypsin solution. After centrifugation, the cells were washed and re-suspended in serum-free DMEM medium. The cells were divided into Eppendorf tubes (1.5 ml), and centrifuged at 2500 rotations per minutes (rpm) for ten minutes. Signal-modulating agents were added and samples were kept in a 37° C. incubator for thirty minutes. In some experiments, the cells were pre-incubated with various inhibitors for the indicated times at 37° C. At the end of the incubation period with signal-modulating chemicals, the cells were washed with PBS and treated with 100 μM H2O2 in 0.5 ml PBS on ice for twenty minutes. Following the hydrogen peroxide treatment, the cells were immediately microfuged for fifteen seconds. The cells were twice washed with cold PBS, and re-suspended at 1.0×10^5 cells/ml in ice-cold PBS. […]
(§3) The slides were placed at 4° C. in the dark for ten minutes and subsequently immersed in pre-chilled Lysis Solution at 4° C. for an additional thirty minutes. […] Comet tail fluorescence intensity was quantified with a Diagnostic Instruments digitized camera, mounted on a Nikon Eclipse E400 microscope, using Scion Image software. Quantification of comet fluorescence was performed as described in P. J. McCarthy et al. (1997) Mutagenesis 12:209-214. […] The data are shown either in arbitrary fluorescent units, or as % DNA damage protection (i.e., the percent decrement in tail fluorescence intensity with test reagent, relative to the intensity recorded in cells treated with hydrogen peroxide only)±S.E.M. […]

Assay [5] relates to p53-deficient cell lines HL60 and K562 and the nucleotide excision repair-deficient line XPA. Nature of the assay: DNA damage protection in p53-deficient and nucleotide excision repair-deficient lines (data not shown). In kind it is cell-based.
The subject of assay [6] is human fibroblastoid M1 cells. The experiment in a line: Measurement of ROS (DCFH-DA fluorescence). To be noted: for H2O2-induced ROS formation: 10 μM agent, 100 μM H2O2, FIG. 4. In kind it is cell-based.
Experimental: The presence of reactive oxidative species was measured using commercially-available equipment in accordance with the manufacturer's instructions. Specifically, sub-confluent cells were detached from flasks using 0.05% trypsin and 5×10^3 human fibroblastoid M1 cells per well were seeded into 96-well plates (Falcon 35-3072). After an overnight culture, the cells were twice washed with DMEM-phenol red-free medium. The cells were subsequently treated with various concentrations of signal-modulating agents in the presence of 10 micromolar (μM) DCFH-DA in 100 microliters (μl) DMEM-phenol red-free medium at 37° C. for 30 minutes. This medium was replaced by a 100 μl DMEM-phenol red-free medium containing DCFH-DA and either 50 mU/ml GO, or 100 μM H2O2, and the cultures were subsequently incubated at 37° C. for 30 minutes. After thirty minutes incubation, the plates were read by CytoFluor™ 2300 (Millipore) at an excitation wavelength (Ex) of 480 nm and emission wavelength (Em) of 520 nm, or by Fusion-Alpha HT system (PerkinElmer Life Sciences, Boston, Mass.) at Ex 485 nm and Em 530 nm.
ROS levels were quantified using the Fusion-Alpha HT system, as described above.
To verify the efficiency of that pathway, DCFH-DA-loaded human fibroblastoid M1 cells were incubated with 10 μM 2-chloroadenosine for thirty minutes followed by incubation with 100 μM H2O2 for twenty minutes to induce oxidative stress. […] ROS levels were quantified using the CytoFluor™ 2300 system, as described above.
Assay [7] has as its system human fibroblastoid M1 cells. The experiment in a line: Comet assay, inhibition of 2CA- or IPP-mediated DNA damage protection by antagonists/inhibitors. The arrangement: key to Mechanism of Signal Transduction: PKA / Mechanism of Signal Transduction: Mevalonate Pathway / Mechanism of Signal Transduction: GGT / Mechanism of Signal Transduction: FT / Mechanism of Signal Transduction: Proteasome: “+” indicates a dependence; “−” indicates independence. Type of assay: cell-based. On the procedure:
as §1, §2
Specifically, […], human fibroblastoid M1 cells were incubated for thirty minutes in either H-89 or 8-bromoguanosine-3′,5′-cyclic monophosphate (8-Br-cGMP) (B), or for fifteen minutes in SNAP, at different concentrations. […] Following induction of oxidative stress, DNA damage was quantified using the Comet assay, as described above. Shown in FIGS. 14-16 are graphs illustrating the DNA damage protection as function of the molar concentration of H-89 (FIG. 14), 8-Br-cGMP (FIG. 15), and SNAP (FIG. 16).
In yet another test, human fibroblastoid M1 cells were pre-incubated for fifteen minutes with different concentrations of the A2bAR antagonist, enprofylline (Enpro).

Assay [8] deals with A2bAR-transfected HEK293 cells. The experiment in a line: Comet assay in A2bAR-transfected HEK293 cells. Type of assay: cell-based. The conditions noted are these: Homo sapiens, 100 μM H2O2, read-out: IC50, DNA damage protection. On the procedure:
(§4) A single-cell gel electrophoresis (SCGE) assay, known as the “Comer” assay was performed to detect/quantify DNA damage by identifying DNA-strand breakage in individual cells, for example. The assay was performed using a kit commercially-available from Trevigen, Inc., of Gaithersburg, Md., as “CometAssay™.” See P. J. McCarthy et al. (1997) Mutagenesis 12:209-214; A. R. Collins et al. (2001) Biochem. Soc. Trans. 29:337-341. Sub-confluent cells were washed with phosphate buffered saline (PBS) and detached from the tissue culture flasks using a 0.05% trypsin solution. After centrifugation, the cells were washed and re-suspended in serum-free DMEM medium. […]
as §3

Assay [9] has as its system A2aAR-transfected HEK293 cells. Nature of the assay: Comet assay in A2aAR-transfected HEK293 cells. Type of assay: cell-based. The conditions noted are these: Homo sapiens, 100 μM H2O2, read-out: IC50, DNA damage protection. On the procedure: as §4, §3
Setting [10] is: dependence of DNA damage protection signaling.

In the case of `C=C(C)CCOP(=O)(O)OP(=O)(O)O` [IPP, isopentenyl diphosphate], the “c[AMP]i over time” value in assay [1] was “did not trigger any meaningful increase”. In addition, the “response to antioxidative signaling” value in assay [2] is “all could respond”. For the same compound, in [3], the “H2O2-mediated DNA damage” value is reported as “prevented H2O2-mediated DNA damage”, the “potency relative to 2-chloroadenosine” value is given as “about 100 times” and the “triggering of DNA damage protection” value is “triggered DNA damage-protection signaling”. Further, the IC50 (commonly the midpoint of a concentration-inhibition curve) in assay [3] (read-out: IC50 (pM), DNA damage protection) amounted to 17 pM. Besides, the half-maximal inhibitory concentration (IC50) in [3] (read-out: IC50, DNA damage protection) is 17 pM and ~17 pM. Further, the “DNA damage protection response” value in assay [4] is “responded readily”. The “DNA damage protection induction” value in [5] is recorded as “intact DNA damage protection induction”. Besides, the “H2O2-induced ROS formation” value in assay [6] is on record as “equivalent inhibition of H2O2-induced ROS formation”. For the same compound, the ROS generation result in [6] (different concentrations, 50 mU/ml GO for thirty minutes, FIG. 3) is recorded as “efficient at blocking ROS generation”. Besides, in assay [7], the “Mechanism of Signal Transduction: FT” value is reported as “−”, the “Mechanism of Signal Transduction: GGT” value is given as “+”, the “Mechanism of Signal Transduction: Mevalonate Pathway” value was “+” and the “Mechanism of Signal Transduction: PKA” value was “−”. For the same compound, the “Mechanism of Signal Transduction: Proteasome” value in assay [7] is “+”.

Regarding `Nc1nc(Cl)nc2c1ncn2[C@@H]1O[C@H](CO)[C@@H](O)[C@H]1O` [2CA, 2-chloroadenosine], in assay [1], the “c[AMP]i over time” value is on record as “triggered an increase”. In addition, in assay [2] (data not shown), the “response to antioxidative signaling” value is reported as “all could respond”. The “H2O2-mediated DNA damage” value in assay [3] (10 μM agent, 100 μM H2O2 for twenty minutes, FIG. 5) is “prevented H2O2-mediated DNA damage”. In addition, in assay [3] (Homo sapiens, AR agonists and isoprenyls, M1 cells, 100 μM H2O2, Comet assay, read-out: IC50 (pM), DNA damage protection), the half-inhibitory concentration (IC50) stood at 2040 pM. The 50% inhibitory concentration (IC50) in assay [3] (Homo sapiens, M1 cells pre-incubated thirty minutes, then 100 μM H2O2, FIGS. 6 and 7, read-out: IC50, DNA damage protection) turned out to be 2040 pM. In addition, the “triggering of DNA damage protection” value in assay [3] (M1 cells, various concentrations, 100 μM H2O2) is listed as “triggered DNA damage protection”. The “DNA damage protection response” value in [4] (A1AR-transfected HEK293 cells, 100 μM H2O2) is on record as “failed to transduce the antioxidative signal”. Moreover, the “DNA damage protection induction” value in assay [5] (HL60, K562, XPA, data not shown) is on record as “intact DNA damage protection induction”. The IC50 in assay [8] turned out to be 120 nM. Also, in [6], the “H2O2-induced ROS formation” value is given as “equivalent inhibition of H2O2-induced ROS formation”. Moreover, in assay [7] (setting [10]), the “Mechanism of Signal Transduction: FT” value is “−”, the “Mechanism of Signal Transduction: GGT” value is “−”, the “Mechanism of Signal Transduction: Mevalonate Pathway” value is recorded as “−” and the “Mechanism of Signal Transduction: PKA” value is given as “+”. The “Mechanism of Signal Transduction: Proteasome” value in assay [7] (setting [10]) is given as “−”. For the same compound, the concentration for half-maximal inhibition (IC50) in assay [9] amounted to 140 nM.
